Patent US20250361226A1, “PHARMACEUTICALLY ACCEPTABLE SALT OF BENZO[C]CHROMAN COMPOUND AND P[…] AND USE OF PHARMACEUTICALLY ACCEPTABLE SALT” (REISTONE BIOPHARMA COMPANY LIMITED, priority 2022, published 2025)

Tests used:
[1] = Dynamic vapor sorption (DVS) with XRPD before and after; format: physicochemical
Experimental: (§1) Test conditions for the instruments used in experiments of the present disclosure: • 1. X-ray Powder Diffraction, XRPD • Instrument type: Malver Panalytical Aeris X-ray powder diffractometer • Ray: monochromatic Cu—Kα ray (λ=1.54188) • Scanning mode: θ/2θ, Scanning range (2θ range): 3.5-50° • Voltage: 40 kV, Electric current: 15 mA • 2. Differential Scanning calorimetry, DSC • Instrument type: TA DSC250 • Purge gas: Nitrogen; Nitrogen purge rate: 50 mL/min • Heating rate: 10° C./min • Temperature range: 25° C.-250° C. • 3. Thermogravimetric Analysis, TGA • Instrument type: TA TGA550 • Purge gas: Nitrogen; Nitrogen purge rate: 20 ml/min • Scanning rate: 10° C./min • Temperature range: 30° C.-350° C. • 4. Dynamic vapor sorption (DVS) • Using SMS Intrinsic PLUS, the detection is performed at 25° C., with humidity change of 50%-0%-90% with a step size of 10%, in which the criteria for judging is that the mass change dM/dT for each gradient is less than 0.002%, TMAX is 360 min, and two cycles are performed. • 5. High performance liquid chromatography (HPLC) described in the stability test of the crystal form A of the present disclosure is determined on Agilent 1260 Infinity II.
During the humidity change of 0%-90% RH, the desorption process of the sample coincides with the adsorption process thereof.

[2] = Stability test (influence factor tests: light, temperature, humidity) by HPLC and XRPD; format: physicochemical
Experimental: as §1
(§2) In the content detection method by the high performance liquid chromatography described in the present disclosure, HPLC conditions are as follows: chromatographic column, Agilent Eclipse Plus C18 4.6 mm*150 mm, 3.5 μm; mobile phase, A-10 mmol/L solution of sodium dihydrogen phosphate (pH 8.0), and B-ACN; flow rate, 1.0 ml/min; wavelength, 210 nm.
as §2, with “related substances” for “content”, “ammonium acetate,” for “sodium dihydrogen phosphate (pH 8.0),”
It is determined whether light, temperature and humidity have an influence on the stability of crystal form A of hydrochloride salt of the compound of formula I. The crystal form A of hydrochloride salt was placed in a stabilizing chamber in the dark and subjected to influence factor tests using a series of temperature and humidity combinations. After being placed for different days under light and various temperature and humidity conditions, the samples were taken out and compared with the initial crystal form A of hydrochloride salt. […] The samples taken out on the last day under light and various temperature and humidity conditions were subjected to XRPD detection, showing that the crystal form A of hydrochloride salt had no change and had good stability.

## Cl.N#Cc1ccc2c(c1)COc1cc(C[C@@H](C#N)NC(=O)[C@@H]3CNCCCO3)c(F)cc1-2 [Crystal form A of hydrochloride salt]
[1]; DVS, 25° C., 80% RH
  weight gain by hygroscopicity: approximately 1.1%
[1]; humidity change 0%-90% RH
  crystal form before and after DVS detection (XRPD): the crystal form did not change
[2]; 25° C. 92% - one week
  Content %: 99.37%
  Isomers %: 0.63%
[2]; 25° C. 92% - two weeks
  Content %: 99.31%
  Isomers %: 0.70%
[2]; 40° C. 75% - one week
  Content %: 99.31%
  Isomers %: 0.69%
[2]; 40° C. 75% - two weeks
  Content %: 99.32%
  Isomers %: 0.68%
[2]; 60° C. - one week
  Content %: 99.31%
  Isomers %: 0.70%
[2]; 60° C. - two weeks
  Content %: 99.33%
  Isomers %: 0.67%
[2]; different days under light and various temperature and humidity conditions
  increase in isomers of the compound of formula I versus initial (HPLC): none of them had a significant increase
[2]; initial
  Content %: 99.54%
  Isomers %: 0.67%
[2]; light, 0.5 ICH
  Content %: 99.44%
  Isomers %: 0.67%
[2]; light, 1 ICH
  Content %: 99.32%
  Isomers %: 0.67%
[2]; samples of the last day under light and various temperature and humidity conditions
  crystal form by XRPD after influence factor tests: had no change
